# Experimental data published in US9873883B2, “Glyphosate resistant plants and associated methods” (Dow AgroSciences LLC, priority 2012, dated 2018).
# What was measured:
# Experiment in all cases: Postemergence glyphosate tolerance, visual injury
# Assay type in all cases: in vivo, Arabidopsis thaliana
# [1] = test system: Arabidopsis transformed with TraP12 v2::dgt-14 (pDAB105528); details: for Visual % injury (Ave): 2 weeks after application
# Source text: (§1) Transgenic T1 Arabidopsis plants containing the dgt-14 transgene were sprayed with differing rates of glyphosate. A distribution of varying concentrations of glyphosate rates, including elevated rates, were applied in this study to determine the relative levels of resistance (105, 420, 1,680 or 3,360 g ae/ha). The typical 1× field usage rate of glyphosate is 1,120 g ae/ha. The T1 Arabidopsis plants that were used in this study were variable in copy number for the dgt-14 transgene. The low copy dgt-14 T1 Arabidopsis plants were identified using the molecular confirmation assays described above, and self-pollinated and used to produce T2 plants.
# (§2) The Arabidopsis T1 transformants were first selected from the background of untransformed seed using a glufosinate selection scheme. Three flats or 30,000 seed were analyzed for each T1 construct. The T1 plants selected above were molecularly characterized and the plants were subsequently transplanted to individual pots and sprayed with various rates of commercial glyphosate as previously described. The dose response of these plants is presented in terms of % visual injury 2 weeks after treatment (WAT). […] An arithmetic mean and standard deviation is presented for each construct used for Arabidopsis transformation. The range in individual response is also indicated in the last column for each rate and transformation. Wildtype, non-transformed Arabidopsis (c.v. Columbia) served as a glyphosate sensitive control.
# (§3) Selected T1 Arabidopsis plants which were identified to contain low-copy numbers of transgene insertions (1-3 copies) were self-fertilized to produce a second generation for additional assessment of glyphosate tolerance. […] In the T2 generation hemizygous and homozygous plants were available for testing for each event and therefore were included for each rate of glyphosate tested. Hemizygous plants contain two different alleles at a locus as compared to homozygous plants which contain the same two alleles at a locus. The copy number and ploidy levels of the T2 plants were confirmed using the molecular analysis protocols previously described. Likewise, glyphosate was applied using the methods and rates as previously described. The dose response of the plants is presented in terms of % visual injury 2 weeks after treatment (WAT). […] An arithmetic mean and standard deviation are presented for each construct used for Arabidopsis transformation. The range in individual response is also indicated in the last column for each rate and transformation. Wildtype, non-transformed Arabidopsis (cv. Columbia) served as a glyphosate sensitive control. In addition, plants comprising a glyphosate herbicide resistance gene, dgt-1 (as described in U.S. patent Ser. No. 12/558,351, incorporated herein by reference in its entirety) were included as a positive control.
# (§4) Randomly selected T2 Arabidopsis plants which were identified to contain low-copy numbers of transgene insertions (1-3 copies) were self-fertilized to produce a third generation for additional assessment of glyphosate tolerance. Arabidopsis seed from the third generation (T3) were planted and evaluated for glyphosate tolerance using the same protocols as previously described. […] These Events were assayed via LC-MS-MS to confirm that the plants expressed the DGT-14 protein. […] Exemplary resistant T3 Events comprised dgt-14 linked with TraP8 v2 (pDAB105526), TraP9 v2 (pDAB105527), TraP12 v2 (pDAB105528) and TraP13 v2 (pDAB105529).
# [2] = test system: Arabidopsis transformed with TraP13 v2::dgt-14 (pDAB105529); details: for Visual % injury (Ave): 2 weeks after application
# Source text: as §1, §2, §3, §4
# [3] = test system: Arabidopsis transformed with TraP4 v5::dgt-14 (pDAB107526); details: 2 weeks after application
# Source text: as §1, §2, §3, §4
# [4] = test system: Arabidopsis transformed with TraP5 v1::dgt-14 (pDAB102787); details: 2 weeks after application
# Source text: as §1, §2, §3, §4
# [5] = test system: Arabidopsis transformed with TraP5 v2::dgt-14 (pDAB105525); details: 2 weeks after application
# Source text: as §1, §2, §3, §4
# [6] = test system: Non-transformed control Arabidopsis (cv. Columbia); details: 2 weeks after application
# Source text: as §1, §2, §3, §4
# [7] = T2, all concentrations of glyphosate tested
# [8] = T3, all concentrations of glyphosate tested
smiles,measurement,setting,value
"O=C(O)CNCP(=O)(O)O [glyphosate, N-(phosphonomethyl)glycine]",Visual % injury (Ave),"[1]; T1, 105 g ae/ha",6.0%
same,Visual % injury (Ave),"[1]; T1, 420 g ae/ha",11.0%
same,Visual % injury (Ave),"[1]; T1, 1680 g ae/ha",20.4%
same,Visual % injury (Ave),"[1]; T1, 3360 g ae/ha",19.0%
same,Visual % injury (Ave),"[1]; T2, 420 g ae/ha",1.8%
same,Visual % injury (Ave),"[1]; T2, 1680 g ae/ha",2.0%
same,Visual % injury (Ave),"[1]; T2, 3360 g ae/ha",3.8%
same,injury range,[1]; [7],less than 20%
same,Visual % injury (Ave),"[1]; T3, 420 g ae/ha",0.0%
same,Visual % injury (Ave),"[1]; T3, 1680 g ae/ha",2.5%
same,Visual % injury (Ave),"[1]; T3, 3360 g ae/ha",4.8%
same,injury range,[1]; [8],less than 20%
same,Visual % injury (Ave),"[2]; T1, 105 g ae/ha",34.5%
same,Visual % injury (Ave),"[2]; T1, 420 g ae/ha",21.3%
same,Visual % injury (Ave),"[2]; T1, 1680 g ae/ha",27.0%
same,Visual % injury (Ave),"[2]; T1, 3360 g ae/ha",32.8%
same,Visual % injury (Ave),"[2]; T2, 420 g ae/ha",0%
same,Visual % injury (Ave),"[2]; T2, 1680 g ae/ha",1.8%
same,Visual % injury (Ave),"[2]; T2, 3360 g ae/ha",3.8%
same,injury range,[2]; [7],less than 20%
same,Visual % injury (Ave),"[2]; T3, 420 g ae/ha",0.0%
same,Visual % injury (Ave),"[2]; T3, 1680 g ae/ha",0.0%
same,Visual % injury (Ave),"[2]; T3, 3360 g ae/ha",1.8%
same,injury range,[2]; [8],less than 20%
same,Visual % injury (Ave),"[3]; T1, 105 g ae/ha",85.8%
same,Visual % injury (Ave),"[3]; T1, 420 g ae/ha",91.0%
same,Visual % injury (Ave),"[3]; T1, 1680 g ae/ha",96.5%
same,Visual % injury (Ave),"[3]; T1, 3360 g ae/ha",95.8%
same,Visual % injury (Ave),"[3]; T2, 420 g ae/ha",85.0%
same,Visual % injury (Ave),"[3]; T2, 840 g ae/ha",87.5%
same,Visual % injury (Ave),"[3]; T2, 1680 g ae/ha",92.5%
same,Visual % injury (Ave),"[3]; T2, 3360 g ae/ha",95.0%
same,Visual % injury (Ave),"[4]; T1, 105 g ae/ha",64.0%
same,Visual % injury (Ave),"[4]; T1, 420 g ae/ha",99.0%
same,Visual % injury (Ave),"[4]; T1, 1680 g ae/ha",100.0%
same,Visual % injury (Ave),"[4]; T2, 420 g ae/ha",90.0%
same,Visual % injury (Ave),"[4]; T2, 1680 g ae/ha",88.8%
same,Visual % injury (Ave),"[4]; T2, 3360 g ae/ha",94.5%
same,Visual % injury (Ave),"[4]; T3, 420 g ae/ha",85.0%
same,Visual % injury (Ave),"[4]; T3, 1680 g ae/ha",93.7%
same,Visual % injury (Ave),"[4]; T3, 3360 g ae/ha",93.7%
same,Visual % injury (Ave),"[5]; T1, 105 g ae/ha",93.0%
same,Visual % injury (Ave),"[5]; T1, 420 g ae/ha",98.6%
same,Visual % injury (Ave),"[5]; T1, 1680 g ae/ha",98.0%
same,Visual % injury (Ave),"[5]; T1, 3360 g ae/ha",96.0%
same,Visual % injury (Ave),"[5]; T2, 420 g ae/ha",86.3%
same,Visual % injury (Ave),"[5]; T2, 1680 g ae/ha",90.0%
same,Visual % injury (Ave),"[5]; T2, 3360 g ae/ha",97.0%
same,Visual % injury (Ave),"[5]; T3, 420 g ae/ha",93.3%
same,Visual % injury (Ave),"[5]; T3, 1680 g ae/ha",93.0%
same,Visual % injury (Ave),"[5]; T3, 3360 g ae/ha",91.7%
same,Visual % injury (Ave),"[6]; T1 study, 105 g ae/ha",100.0%
same,Visual % injury (Ave),"[6]; T1 study, 420 g ae/ha",100.0%
same,Visual % injury (Ave),"[6]; T1 study, 1680 g ae/ha",100.0%
same,Visual % injury (Ave),"[6]; T1 study, 3360 g ae/ha",100.0%
same,Visual % injury (Ave),"[6]; T2 study, 420 g ae/ha",100.0%
same,Visual % injury (Ave),"[6]; T2 study, 1680 g ae/ha",100.0%
same,Visual % injury (Ave),"[6]; T2 study, 3360 g ae/ha",100.0%
same,Visual % injury (Ave),"[6]; T3 study, 420 g ae/ha",100.0%
same,Visual % injury (Ave),"[6]; T3 study, 1680 g ae/ha",100.0%
same,Visual % injury (Ave),"[6]; T3 study, 3360 g ae/ha",100.0%
